≈ marks a conversion by molar mass, not a printed value.
Assays:
[1] = target: Cyclic GMP-AMP synthase (Homo sapiens) (UniProt Q8N884); assay: Inhibition of human recombinant cGAS (157 to 522 residues) extracted from Escherichia coli BL21(DE3)cells using GTP/ATP as substrate incubated for 1 to 2 hrs by Rapidfire 300 mass spectrometric analysis; conditions: time 1-2 hrs
[2] = Solubility of compound in FaSSIF at pH 6.5 measured after 4 hrs by HPLC-UV analysis; format: physicochemical
[3] = target: Cyclic GMP-AMP synthase (Homo sapiens) (UniProt Q8N884); assay: Inhibition of cGAS in human whole blood incubated for 6 hrs by cytometric bead array; format: tissue-based

Chain of Cyclic GMP-AMP synthase (Homo sapiens) (Q8N884 whole entry, the tested form may be a part): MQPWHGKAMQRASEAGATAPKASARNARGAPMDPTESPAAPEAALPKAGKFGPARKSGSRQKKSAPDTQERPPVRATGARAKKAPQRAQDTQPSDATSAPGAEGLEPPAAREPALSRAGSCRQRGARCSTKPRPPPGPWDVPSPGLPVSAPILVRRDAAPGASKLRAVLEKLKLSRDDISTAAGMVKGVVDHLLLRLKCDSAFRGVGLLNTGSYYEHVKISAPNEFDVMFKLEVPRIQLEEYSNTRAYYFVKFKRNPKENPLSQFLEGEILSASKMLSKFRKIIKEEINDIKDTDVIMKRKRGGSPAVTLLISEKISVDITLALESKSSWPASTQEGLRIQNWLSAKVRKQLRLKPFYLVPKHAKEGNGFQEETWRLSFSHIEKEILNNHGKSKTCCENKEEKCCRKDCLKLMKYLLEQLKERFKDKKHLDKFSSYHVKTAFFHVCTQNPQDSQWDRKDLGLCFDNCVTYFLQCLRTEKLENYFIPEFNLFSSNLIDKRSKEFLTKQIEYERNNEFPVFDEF

pXC50 [1] | solubility at 4 h [2] [µg/mL] | pXC50 [3] | SMILES
6.1 | > 1000 |  | O=P(O)(O)OCn1nc(C(F)(F)F)nc1-c1nc2ncc(F)cn2c1-c1cnc[nH]1
 | 4 (≈ 12.5 µM) |  | FC(F)(F)c1n[nH]c(-c2nc3ncccn3c2-c2c[nH]cn2)n1
8.4 | 5 (≈ 14.8 µM) | 6.5 | Fc1cnc2nc(-c3nc(C(F)(F)F)n[nH]3)c(-c3c[nH]cn3)n2c1
7.5 | > 1000 | 6.5 | O=C(CCCOP(=O)(O)O)OCn1cnc(-c2c(-c3nc(C(F)(F)F)nn3COC(=O)CCCOP(=O)(O)O)nc3ncccn23)c1.O=C(O)C(F)(F)F
